Key:
C57Bl/6 mice = type: in vivo; details: for distance moved in the novel cage: single 100, 300, or 900 mg/kg IP, dose- and time-dependent
Protocol: Dosing: (R)-2MeGlu (30, 100, 300, or 900 mg/kg), (S)-2MeGlu (30, 100, 300, or 900 mg/kg), rac-2MeGln (30, 100, 300, or 900 mg/kg) and vehicle (PBS) were administered at 10 ml/kg IP dosing volume. Three mice were dosed once with the assigned drug (100, 300, or 900 mg/kg) or vehicle and immediately placed in a new cage for novel cage observation. Subsequently, six mice were dosed once with the assigned drug (30 or 100 mg/kg) or vehicle and tested by SHIRPA, activity chamber, and then hot plate tests.
The mouse was dosed and immediately placed in the center of a clean, Innovive disposable rat cage with bedding (dimensions: 17″L×13.4″W×7.8″H) and allowed to move freely while being tracked automatically. Mice were monitored with Ethovision XT tracking software for the distance moved and average velocity during the 60-minute trial. They were returned to their home cage after the test. A new cage was used for each mouse.
Exploratory behavioral tests were performed exactly as previously described by us using 2-month-old C57Bl/6 male mice, Example 1. First, we assessed safety and tolerability of acute exposure to 4APA enantiomers in 22 mice by novel cage observation at 100, 300, or 900 mg/kg IP compared to vehicle (PBS) IP (n=3 or 4 mice per group without sample calculation, based on our previous study. Next, we evaluated 24 drug naïve mice with a 23-measure battery of neurologic dysfunction in mice (SHIRPA) (Rogers et al., 2001), automated activity chamber assessment, and hot plate latency acutely following 30 or 100 mg/kg IP compared to vehicle IP (n=4 or 5 mice per group). No exclusion criteria were predetermined and no randomization was performed to allocate subjects in the study.

GABAB (B1b/B2) = molecular target: T1, GABAB (B1b/B2) (Homo sapiens, UniProt Q9UBS5); experiment: radioligand binding assay
T1 construct: host or cells: CHO-K1
Protocol: (§1) Nonspecific AMPA, kainate and NMDA binding assays were performed by Eurofins Discovery (Cerep) using rat cerebral cortex membranes and radiolabeled [^3H]AMPA, [^3H]kainic acid and [^3H]CGP 39653, respectively. All compounds were tested at a single concentration of 100 uM in triplicate. mGluR1, mGluR2, mGluR5 and GABAB binding assays were performed by Eurofins Discovery. mGluR1 assay was performed using rat cerebellum membranes and radiolabeled [^3H]quisqalic acid. mGluR2 assay was performed using recombinant Chem-1 cells and [^3H]LY341495. mGluR5 and GABAB binding assays were performed using recombinant CHO-K1 cells and […], respectively. All compounds were tested at a single concentration of 100 uM in triplicate.
(§2) All receptor assays were performed exactly as described in Example 1. Functional assays of all GABAA, NMDA (GluN2A-GluN2D) and AMPA (GluA2) receptor subunits were performed by SB Drug Discovery as a part of their CNS discovery panel using FLIPR technology. All compounds were tested at 7 concentrations in triplicate and EC50/IC50 was determined where applicable. Functional GABAB assay was performed by Eurofins Discovery (Cerep) using Ca^2+-dependent fluorimetry in RBL cells expressing human GABAB (B1/B2) receptor. All compounds were tested at a single concentration of 100 uM in triplicate. Nonspecific AMPA, kainate and NMDA binding assays were performed by Eurofins Discovery (Cerep) using rat cerebral cortex membranes and radiolabeled [^3H]AMPA, [^3H]kainic acid and [^3H]CGP 39653, respectively. All compounds were tested at a single concentration of 100 uM in triplicate. mGluR1, mGluR2, mGluR5 and GABAB binding assays were performed by Eurofins Discovery. All compounds were tested at a single concentration of 100 uM in triplicate.

GABAB (B1a/B2) = molecular target: T2, GABAB (B1a/B2) (Homo sapiens, UniProt Q9UBS5); experiment: radioligand binding assay
T2 construct: host or cells: CHO-K1
Protocol: as §1, §2

mGluR2 = molecular target: T3, mGluR2 (Homo sapiens, UniProt Q14416); experiment: radioligand binding assay, recombinant Chem-1 cells
T3 construct: host or cells: Chem-1 cells
Protocol: as §1
All receptor assays were performed exactly as described in Example 1. Functional assays of all GABAA, NMDA (GluN2A-GluN2D) and AMPA (GluA2) receptor subunits were performed by SB Drug Discovery as a part of their CNS discovery panel using FLIPR technology. All compounds were tested at 7 concentrations in triplicate and EC50/IC50 was determined where applicable. Functional GABAB assay was performed by Eurofins Discovery (Cerep) using Ca^2+-dependent fluorimetry in RBL cells expressing human GABAB (B1/B2) receptor. All compounds were tested at a single concentration of 100 uM in triplicate. […]

[1] = system: mouse cerebral synaptosomes; experiment: Synaptosomal neurotransmitter uptake assay; type: cell-based; details: 10 μM substrate; for transport into synaptosomes: 37° C.
Protocol: To each tube, 5 μL of a test compound solution (final concentration 10 μM) in Buffer KRP or Buffer KRP alone were added. Samples were incubated at 4° C. or 37° C. for 1, 10, or 30 min and then immediately centrifuged and washed twice by resuspension-centrifugation with Buffer S (0.5 mL). Resulting pellets were resuspended in 170 μL of 0.1% aqueous formic acid and mixed with 330 μL of ACN.
96-well plate experiments: 250 μL aliquots of the synaptosome suspension were transferred to two 0.8-mL 96 well plates, one on ice (0° C. samples only) and one in a thermoblock (37° C. samples only), and equilibrated for 10 min. 5 μL of a test compound (0.5 mM; final concentration: 10 μM) in Buffer KRP or Buffer KRP blank were added 10, 20 or 30 min before the incubation termination. “0 min” samples were prepared by placing the test compound solution in a separate pre-chilled V-shape bottom 2-mL 96 well plate; at the end of incubation 200 μL aliquots of all samples were transferred to the 2-mL 96 well plate and centrifuged (2,500 g for 15 min at 4° C.) immediately. The resulting pellets were rinsed with Buffer KRP, followed by centrifugation, twice, then resuspended in 200 μL of 60% ACN containing 2.5 μM Glu-d5 as internal standard and stored at −80° C. until analysis.
Synaptosome uptake and high potassium-induced release assays were performed as described in Example 1. Uptake assays used 250 μL aliquots of the synaptosome suspension transferred to a pre-chilled 0.8 mL 96 well plate. 5 μL of a test compound solution (0.5 mM; final concentration: 10 μM to compare directly to our previous work was added to each well and incubated at 0° C. or 37° C. After 10, 20 or 30 min, samples were chilled on ice and immediately sedimented (2,500 g for 15 min at 4° C.) and washed with Buffer S (0.5 mL, ×2). Resulting pellets were resuspended in 200 μL of 60% ACN containing 5 μM GABA-d6 and stored at −80° C. until analysis. Potassium-induced release assay used 500 μL aliquots of the synaptosome suspension transferred to pre-chilled microcentrifuge tubes. 2.5 μL of a test compound solution (20 mM; final concentration: 100 μM) in Buffer KRP was added to each tube and incubated for 15 min at 37° C., briefly chilled on ice, and then immediately sedimented (8,000 g for 4 min at 4° C.) and washed with Buffer KRP, followed by centrifugation, twice. The resulting pellets were resuspended in 500 μL of Buffer KRP or Buffer K-KRP and incubated for 5, 10 or 15 min at 37° C., sedimented (8,000 g for 4 min at 4° C.), and washed with Buffer KRP. Resulting pellets were resuspended in 400 μL of 60% ACN containing 2.5 μM GABA-d6 as internal standard and stored at −80° C. until analysis.

T2 sequence (Q9UBS5 15-961 limits assumed): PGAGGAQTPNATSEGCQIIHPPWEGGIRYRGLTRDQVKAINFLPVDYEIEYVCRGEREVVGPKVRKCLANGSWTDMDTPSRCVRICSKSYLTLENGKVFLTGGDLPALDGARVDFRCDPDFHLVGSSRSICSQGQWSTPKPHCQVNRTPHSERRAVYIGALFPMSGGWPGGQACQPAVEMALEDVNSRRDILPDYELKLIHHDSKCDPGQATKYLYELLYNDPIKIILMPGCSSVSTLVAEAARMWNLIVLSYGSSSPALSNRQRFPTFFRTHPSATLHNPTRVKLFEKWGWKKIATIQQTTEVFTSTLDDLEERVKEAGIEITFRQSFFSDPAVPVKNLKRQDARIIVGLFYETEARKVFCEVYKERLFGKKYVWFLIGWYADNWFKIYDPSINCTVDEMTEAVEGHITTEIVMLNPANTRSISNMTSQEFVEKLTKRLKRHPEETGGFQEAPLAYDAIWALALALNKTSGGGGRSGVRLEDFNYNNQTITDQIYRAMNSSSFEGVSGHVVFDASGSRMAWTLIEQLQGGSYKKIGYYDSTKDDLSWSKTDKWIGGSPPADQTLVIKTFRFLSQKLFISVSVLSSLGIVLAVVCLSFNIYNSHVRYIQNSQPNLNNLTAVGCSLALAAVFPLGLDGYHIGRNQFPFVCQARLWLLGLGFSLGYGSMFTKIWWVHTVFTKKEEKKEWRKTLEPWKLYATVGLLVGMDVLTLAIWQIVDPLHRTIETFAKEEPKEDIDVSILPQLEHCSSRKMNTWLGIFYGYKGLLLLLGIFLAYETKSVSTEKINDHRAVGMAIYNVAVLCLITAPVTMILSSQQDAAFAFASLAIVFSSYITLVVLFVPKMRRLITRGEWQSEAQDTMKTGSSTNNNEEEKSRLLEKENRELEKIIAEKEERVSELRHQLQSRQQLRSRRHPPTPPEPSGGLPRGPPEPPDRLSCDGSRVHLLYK
T2 sequence (O75899 42-941 partner): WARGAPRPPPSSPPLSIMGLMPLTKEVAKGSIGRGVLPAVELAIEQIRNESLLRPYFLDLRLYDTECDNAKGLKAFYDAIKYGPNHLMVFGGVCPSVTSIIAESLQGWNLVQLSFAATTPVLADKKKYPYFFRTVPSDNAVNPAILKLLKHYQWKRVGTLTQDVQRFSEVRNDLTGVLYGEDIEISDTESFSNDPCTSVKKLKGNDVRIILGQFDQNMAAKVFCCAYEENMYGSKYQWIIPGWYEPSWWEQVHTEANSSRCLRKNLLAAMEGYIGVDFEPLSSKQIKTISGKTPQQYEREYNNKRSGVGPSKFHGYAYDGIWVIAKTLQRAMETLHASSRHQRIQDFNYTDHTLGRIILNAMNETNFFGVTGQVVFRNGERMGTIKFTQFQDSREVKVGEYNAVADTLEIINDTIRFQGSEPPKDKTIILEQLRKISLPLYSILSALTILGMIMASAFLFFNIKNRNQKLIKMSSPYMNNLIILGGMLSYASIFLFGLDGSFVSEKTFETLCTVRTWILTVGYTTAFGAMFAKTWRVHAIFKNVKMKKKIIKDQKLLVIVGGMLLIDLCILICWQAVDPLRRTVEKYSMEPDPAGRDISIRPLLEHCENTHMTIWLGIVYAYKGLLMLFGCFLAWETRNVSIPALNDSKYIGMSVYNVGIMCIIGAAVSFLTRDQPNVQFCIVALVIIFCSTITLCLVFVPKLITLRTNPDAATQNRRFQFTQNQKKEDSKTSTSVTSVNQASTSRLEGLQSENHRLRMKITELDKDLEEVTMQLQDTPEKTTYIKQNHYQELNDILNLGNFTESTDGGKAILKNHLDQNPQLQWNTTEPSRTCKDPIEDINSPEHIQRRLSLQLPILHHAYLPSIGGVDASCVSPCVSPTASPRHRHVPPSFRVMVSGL
T1 sequence (Q9UBS5 1-844 isoform Q9UBS5-2): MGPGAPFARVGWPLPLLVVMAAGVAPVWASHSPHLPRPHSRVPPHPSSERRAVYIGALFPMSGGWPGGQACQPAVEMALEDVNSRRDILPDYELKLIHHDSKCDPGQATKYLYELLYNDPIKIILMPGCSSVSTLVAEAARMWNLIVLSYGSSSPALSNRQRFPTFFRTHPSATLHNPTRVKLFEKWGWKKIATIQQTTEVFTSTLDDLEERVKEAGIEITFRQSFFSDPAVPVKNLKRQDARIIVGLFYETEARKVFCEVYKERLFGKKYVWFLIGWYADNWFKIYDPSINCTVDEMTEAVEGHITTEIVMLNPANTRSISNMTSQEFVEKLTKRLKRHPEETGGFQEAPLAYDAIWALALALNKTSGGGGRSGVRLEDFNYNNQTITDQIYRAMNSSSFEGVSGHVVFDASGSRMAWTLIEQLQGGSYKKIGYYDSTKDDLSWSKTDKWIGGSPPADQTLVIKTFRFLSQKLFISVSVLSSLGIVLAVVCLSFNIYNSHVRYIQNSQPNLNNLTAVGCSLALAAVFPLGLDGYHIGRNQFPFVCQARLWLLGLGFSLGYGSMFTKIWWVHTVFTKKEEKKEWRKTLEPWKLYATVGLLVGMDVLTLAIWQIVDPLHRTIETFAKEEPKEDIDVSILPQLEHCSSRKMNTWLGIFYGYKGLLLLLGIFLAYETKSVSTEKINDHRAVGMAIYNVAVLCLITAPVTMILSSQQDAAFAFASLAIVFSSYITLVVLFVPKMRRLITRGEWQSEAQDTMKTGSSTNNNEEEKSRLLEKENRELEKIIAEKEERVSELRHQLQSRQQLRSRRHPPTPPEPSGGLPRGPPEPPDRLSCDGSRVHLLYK
T1 sequence (O75899 42-941 partner): as the sequence (O75899 42-941 partner) above
T3 sequence (Q14416 19-872): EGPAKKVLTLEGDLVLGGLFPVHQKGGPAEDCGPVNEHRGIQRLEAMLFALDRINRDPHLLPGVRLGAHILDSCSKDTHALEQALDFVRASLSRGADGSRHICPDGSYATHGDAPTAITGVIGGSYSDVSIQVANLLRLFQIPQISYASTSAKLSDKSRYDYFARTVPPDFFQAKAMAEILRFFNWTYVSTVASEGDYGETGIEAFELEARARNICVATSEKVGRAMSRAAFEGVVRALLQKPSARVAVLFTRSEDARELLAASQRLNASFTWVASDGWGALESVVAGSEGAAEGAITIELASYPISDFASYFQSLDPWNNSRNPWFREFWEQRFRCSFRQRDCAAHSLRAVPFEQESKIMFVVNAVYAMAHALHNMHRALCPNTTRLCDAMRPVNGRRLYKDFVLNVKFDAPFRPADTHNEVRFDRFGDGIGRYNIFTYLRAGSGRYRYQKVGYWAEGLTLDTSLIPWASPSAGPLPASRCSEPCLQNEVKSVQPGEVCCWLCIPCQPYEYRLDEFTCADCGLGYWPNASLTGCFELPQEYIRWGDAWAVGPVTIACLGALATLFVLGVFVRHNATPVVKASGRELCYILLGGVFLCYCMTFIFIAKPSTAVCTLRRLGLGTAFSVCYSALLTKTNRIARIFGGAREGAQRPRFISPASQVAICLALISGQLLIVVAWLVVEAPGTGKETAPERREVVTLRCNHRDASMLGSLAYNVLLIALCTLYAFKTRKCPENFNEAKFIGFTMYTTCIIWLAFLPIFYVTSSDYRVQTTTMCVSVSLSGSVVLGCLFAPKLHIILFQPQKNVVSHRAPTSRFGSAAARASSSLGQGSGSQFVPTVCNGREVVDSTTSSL

C[C@@](N)(CCC(=O)O)C(=O)O [(R)-2MeGlu, (R)-2-methylglutamic acid]
mortality after single dose (C57Bl/6 mice; mouse, in vivo): one mouse died
distance moved in the novel cage (C57Bl/6 mice): significantly decreased
inhibition at 100 µM (GABAB (B1b/B2)): 13%
inhibition at 100 µM (GABAB (B1a/B2)): 18%
inhibition at 100 µM (mGluR2): -3%
transport into synaptosomes [1]: transported into synaptosomes

C[C@](N)(CCC(=O)O)C(=O)O [(S)-2MeGlu, (S)-2-methylglutamic acid]
distance moved in the novel cage (C57Bl/6 mice): significantly decreased
inhibition at 100 µM (GABAB (B1b/B2)): 14%
inhibition at 100 µM (GABAB (B1a/B2)): 6%
inhibition at 100 µM (mGluR2): 25%
transport into synaptosomes [1]: transported into synaptosomes
synaptosomal uptake, faster than the R enantiomer ([1]; temperature-dependent uptake): approximately 3 fold

From patent US12589087B2, “Enantiomer selective action on neurotransmission” (The Board of Trustees of the Leland Stanford Junior …, priority 2021, dated 2026)
